Results from patent US20130012466A1 (priority 2006, published 2013).
“Also recorded” adds a separate entry of the source. Where two headings read alike, the source gives them in different places.

Tests used:
[1] = test system: Hep3B; assay: Cytotoxicity assay (cell titer-glo and calcein AM), Hep3B
[2] = test system: nine human cancer cell lines and one normal mouse control cell line; assay: Cytotoxicity screen across the whole cell line panel; assay type: cell-based; conditions: versus parent colchicine
[3] = test system: A549; assay: Cytotoxicity assay (cell titer-glo and calcein AM), A549
[4] = test system: tubulin; assay: In vitro tubulin polymerization assay (fluorescence-based); assay type: biochemical; set-up: key to tubulin polymeriz.: ‘D’ designates destabilizer; ‘S’ designates stabilizer; conditions: for effect on tubulin polymerization / microtubules: tested in duplicate on at least two days
Description: In vitro tubulin polymerization assays were performed using a fluorescence-based assay (Cytoskeleton, Inc., Denver, Colo.). […] Aliquots (5 μL) of each compound or control were added to a 96-well black half area plate (Corning Costar, Inc.) pre-warmed to 37° C. Cold tubulin reaction mix (50 μL 1× Buffer—80 mM piperazine-N,N′-bis[2-ethanesulfonic acid]sequisodium salt; 2.0 mM magnesium chloride; 0.5 mM ethylene glycol-bis[β-amino-ethyl ether) N,N,N′,N′-tetra-acetic acid, pH 6.9, 10 μM fluorescent reporter; 20% tubulin glycerol buffer—80 mM piperazine-N,N′-bis[2-ethanesulfonic acid] sequisodium salt; 2.0 mM magnesium chloride; 0.5 mM ethylene glycol-bis(β-amino-ethyl ether) N,N,N′,N′-tetra-acetic acid, 60% v/v glycerol, pH 6.9, 1 mM GTP; and 2 mg mL^−1 tubulin stock) was added to each of the compounds. […] Polymerization curves were generated in Excel after background correction and the effects of test compounds were compared to controls.
Library members that accelerated the rate of tubulin polymerization were deemed microtubule stabilizers, whereas compounds that decelerated the rate of tubulin polymerization were deemed microtubule de-stabilizers.

[5] = test system: ADR-RES; assay: Cytotoxicity assay (cell titer-glo and calcein AM), ADR-RES
[6] = test system: Du145; assay: Cytotoxicity assay (cell titer-glo and calcein AM), Du145
[7] = test system: SF-268; assay: Cytotoxicity assay (cell titer-glo and calcein AM), SF-268
[8] = test system: SK-OV-3; assay: Cytotoxicity assay (cell titer-glo and calcein AM), SK-OV-3
[9] = test system: A549 cells; assay: Drug combination study with paclitaxel (Chou-Talalay combination index); conditions: for plus paclitaxel, mean CI / plus paclitaxel, median CI: combination index, paclitaxel held at IC10, A549 cells; for interaction with paclitaxel/taxol: drug combination, A549 cells, Chou-Talalay;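 as to all read-outs here: combination indexes averaged only over points where fraction affected exceeded 0.2, with each synergy experiment repeated at least three times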
Description: (§1) Ten thousand A549 cells per well were plated in triplicate in 96 well black tissue culture treated plates. Cells were incubated for one hour at 37° C. to allow cells to attach.
(§2) All synergy experiment results were replicated at least three times and the overall effects analyzed by averaging all combination indexes generated if the fraction affected was greater than 0.2.

[10] = test system: MCF7; assay: Cytotoxicity assay (cell titer-glo and calcein AM), MCF7
[11] = test system: NCI-H460; assay: Cytotoxicity assay (cell titer-glo and calcein AM), NCI-H460
[12] = test system: A549 cells; assay: Drug combination study with colchicine (Chou-Talalay combination index); conditions: for plus colchicine, mean CI / plus colchicine, median CI: combination index, colchicine held at IC10, A549 cells; for interaction with colchicine: drug combination, A549 cells, Chou-Talalay
Description: as §1, §2

[13] = test system: mouse mammary normal epithelial control cell line; assay: Cytotoxicity assay, normal control cell line
[14] = test system: HCT-116; assay: Cytotoxicity assay (cell titer-glo and calcein AM), HCT-116
[15] = read-out: Cytotoxicity IC50, Hep 3B, CTG, Hep 3B, CTG (cell titer-glo) readout, % error in parentheses
[16] = read-out: Cytotoxicity IC50, Hep 3B, calcein, Hep 3B, calcein AM readout, % error in parentheses
[17] = read-out: Cytotoxicity IC50, A549, CTG, A549, CTG (cell titer-glo) readout, % error in parentheses
[18] = read-out: Cytotoxicity IC50, A549, calcein, A549, calcein AM readout, % error in parentheses
[19] = read-out: Cytotoxicity IC50, NCI/ADR RES, CTG, NCI/ADR RES, CTG (cell titer-glo) readout, % error in parentheses
[20] = read-out: Cytotoxicity IC50, NCI/ADR RES, calcein, NCI/ADR RES, calcein AM readout, % error in parentheses
[21] = read-out: Cytotoxicity IC50, Du145, CTG, Du145, CTG (cell titer-glo) readout, % error in parentheses
[22] = read-out: Cytotoxicity IC50, Du145, calcein, Du145, calcein AM readout, % error in parentheses
[23] = read-out: Cytotoxicity IC50, SF-268, CTG, SF-268, CTG (cell titer-glo) readout, % error in parentheses
[24] = read-out: Cytotoxicity IC50, SF-268, calcein, SF-268, calcein AM readout, % error in parentheses
[25] = read-out: Cytotoxicity IC50, SK-OV-3, CTG, SK-OV-3, CTG (cell titer-glo) readout, % error in parentheses
[26] = read-out: Cytotoxicity IC50, SK-OV-3, calcein, SK-OV-3, calcein AM readout, % error in parentheses
[27] = read-out: Cytotoxicity IC50, MCF7, CTG, CTG (cell titer-glo) readout, % error in parentheses
[28] = read-out: Cytotoxicity IC50, MCF7, calcein, calcein AM readout, % error in parentheses
[29] = read-out: Cytotoxicity IC50, NCI-H460, CTG, NCI-H460, CTG (cell titer-glo) readout, % error in parentheses
[30] = read-out: Cytotoxicity IC50, NCI-H460, calcein, NCI-H460, calcein AM readout, % error in parentheses
[31] = read-out: Cytotoxicity IC50, NmuMG, CTG, CTG (cell titer-glo) readout, % error in parentheses
[32] = read-out: Cytotoxicity IC50, NmuMG, calcein, calcein AM readout, % error in parentheses
[33] = Homo sapiens, Hep3B, read-out: Cytotoxicity IC50, Hep 3B, calcein
[34] = Homo sapiens, NCI/ADR-RES, read-out: Cytotoxicity IC50, NCI/ADR RES, calcein
[35] = Homo sapiens, DU-145, read-out: Cytotoxicity IC50, Du145, CTG
[36] = Homo sapiens, DU-145, read-out: Cytotoxicity IC50, Du145, calcein
[37] = Homo sapiens, SF-268, read-out: Cytotoxicity IC50, SF-268, calcein
[38] = Homo sapiens, SK-OV-3, read-out: Cytotoxicity IC50, SK-OV-3, CTG
[39] = Homo sapiens, SK-OV-3, read-out: Cytotoxicity IC50, SK-OV-3, calcein
[40] = Homo sapiens, HCT-116, read-out: Cytotoxicity IC50, HCT-116, CTG
[41] = Homo sapiens, HCT-116, read-out: Cytotoxicity IC50, HCT-116, calcein
[42] = read-out: Cytotoxicity IC50, HCT-116, CTG, HCT-116, CTG (cell titer-glo) readout, % error in parentheses
[43] = read-out: Cytotoxicity IC50, HCT-116, calcein, HCT-116, calcein AM readout, % error in parentheses

Compound | IC50 [1, 15] [nM] | IC50 [1, 16] [nM] | IC50 [3, 17] [nM] | IC50 [3, 18] [nM] | tubulin polymeriz. [4] | effect on tubulin polymerization / microtubules [4] | IC50 [5, 19] [nM] | IC50 [5, 20] [nM] | IC50 [6, 21] [nM] | IC50 [6, 22] [nM] | IC50 [7, 23] [nM] | IC50 [7, 24] [nM] | IC50 [8, 25] [nM] | IC50 [8, 26] [nM] | IC50 [10, 27] [nM] | IC50 [10, 28] [nM] | IC50 [11, 29] [nM] | IC50 [11, 30] [nM] | IC50 [13, 31] [nM] | IC50 [13, 32] [nM] | other results
2-deoxy-L-riboside [Col19] | 376 | 437 | 376 | 636 | S | stabilizing; also recorded: stabilized the microtubules | 359 | 315 | 369 | 262 | 284 | 575 | 240 | 538 | 916 | 2820 | 415 | 191 | 2910 | 2850 | reduction in potency relative to (1) [2]: ~10 fold; synergy (paclitaxel) ([9]; combination index class, combination with paclitaxel, Chou-Talalay method): — (moderate antagonism, Cl 1.2-1.45); plus paclitaxel, mean CI [9]: 43.20; plus paclitaxel, median CI [9]: 13.40; interaction with paclitaxel/taxol [9]: antagonism; plus colchicine, mean CI [12]: 0.54; plus colchicine, median CI [12]: 0.50; interaction with colchicine [12]: synergism
CONCC(=O)N[C@H]1CCc2cc(OC)c(OC)c(OC)c2-c2ccc(OC)c(=O)cc21 [Col 8, 19-N-methoxyamino-colchicine] |  |  |  |  |  |  |  |  |  |  |  |  |  |  |  |  |  |  |  |  | IC50 ([1]; Homo sapiens, Hep3B, read-out: Cytotoxicity IC50, Hep 3B, CTG): 141 nM; IC50 [1, 33]: 284 nM; IC50 ([5]; Homo sapiens, NCI/ADR-RES, read-out: Cytotoxicity IC50, NCI/ADR RES, CTG): 79 nM; IC50 [5, 34]: 65 nM; IC50 [6, 35]: 64 nM; IC50 [6, 36]: 84 nM; IC50 ([7]; Homo sapiens, SF-268, read-out: Cytotoxicity IC50, SF-268, CTG): 116 nM; IC50 [7, 37]: 191 nM; IC50 [8, 38]: 455 nM; IC50 [8, 39]: 316 nM; IC50 [14, 40]: 116 nM; IC50 [14, 41]: 98 nM; plus paclitaxel, mean CI [9]: 0.90; plus paclitaxel, median CI [9]: 0.57; interaction with paclitaxel/taxol [9]: synergy; plus colchicine, mean CI [12]: 2.98; plus colchicine, median CI [12]: 1.47; interaction with colchicine [12]: antagonism
CC(=O)O[C@H]1C(=O)[C@@]2(C)[C@H]([C@H](OC(=O)c3ccccc3)[C@]3(O)C[C@H](OC(=O)[C@H](O)[C@@H](NC(=O)c4ccccc4)c4ccccc4)C(C)=C1C3(C)C)[C@]1(OC(C)=O)CO[C@@H]1C[C@@H]2O [paclitaxel, reference compound] |  |  |  |  | S | stabilizing; also recorded: stabilized the microtubules |  |  |  |  |  |  |  |  |  |  |  |  |  |  | IC50 [1, 33]: 166 nM; IC50 ([1]; Homo sapiens, Hep3B, read-out: IC50 (Hep3B)): 166 nM; IC50 ([3]; Homo sapiens, A549, read-out: IC50 (A549)): 75 nM; IC50 [5, 34]: 43 nM; IC50 ([5]; Homo sapiens, read-out: IC50 (ADR-RES)): 43 nM; IC50 [6, 35]: 432 nM; IC50 [6, 36]: 290 nM; IC50 ([6]; Homo sapiens, DU-145, read-out: IC50 (Du145)): 290 nM; IC50 [7, 37]: 315 nM; IC50 ([7]; Homo sapiens, SF-268, read-out: IC50 (SF-268)): 315 nM; IC50 [8, 38]: 42 nM; IC50 [8, 39]: 34 nM; IC50 ([8]; Homo sapiens, SK-OV-3, read-out: IC50 (SK-OV-3)): 34 nM; IC50 [14, 40]: 168 nM; IC50 [14, 41]: 275 nM; IC50 ([14]; Homo sapiens, HCT-116, read-out: IC50 (HCT-116)): 275 nM; IC50 ([11]; Homo sapiens, NCI-H460, read-out: IC50 (NCI-H460)): 105 nM
COc1cc2c(c(OC)c1OC)-c1ccc(OC)c(=O)cc1C(NC(=O)CN(OC)C1CC(O)C(O)C(C)O1)CC2 [Col65, D-Digitoxoside] | 1700 | 1880 | 1490 | 2300 | no effect | no apparent effect | 893 | 694 | 850 | 939 | 800 | 665 | 634 | 1030 | 946 | 648 | 862 | 744 | 7750 | 3320 | IC50 [14, 42]: 918 nM; IC50 [14, 43]: 897 nM
COc1cc2c(c(OC)c1OC)-c1ccc(OC)c(=O)cc1[C@@H](NC(=O)CN(OC)[C@H]1C[C@@H](O)[C@H](O)[C@@H](CO)O1)CC2 [Col16, 2-deoxy-D-glucoside] | 1920 | 1440 | 3900 | 1680 |  | destabilized microtubules | 1680 | 899 | 705 | 910 | 1070 | 1540 | 432 | 625 | 2650 | 1920 | 946 | 808 | 1610 | 4420 | plus paclitaxel, mean CI [9]: 0.40; plus paclitaxel, median CI [9]: 0.11; interaction with paclitaxel/taxol [9]: synergy; plus colchicine, mean CI [12]: 5.97; plus colchicine, median CI [12]: 5.33; interaction with colchicine [12]: antagonism
6-thio-D-mannose dimer [Col58] | 8620 | 5020 | 3920 | 4620 |  |  | 3600 | 1570 | 2090 | 2120 | 8010 | 9090 | 6070 | 7560 | 2500 | 3860 | > 10000 | > 10000 | 6390 | > 10000 | IC50 [14, 42]: 1900 nM; IC50 [14, 43]: 2510 nM
